Source: patent US20180125992A1, “DRUG DELIVERY CONJUGATES OF TERTIARY AMINE […]” (ENDOCYTE, INC., priority 2016, published 2018)

Test system: KB cells
Assay: In vitro FR specific activity of folate conjugates: 3H-thymidine incorporation in KB cells
Assay type: cell-based
Settings: 2 h pulse at 37° C., chase up to 72 h, without excess folate
Description: KB cells were seeded in individual 24-well Falcon plates and allowed to form nearly confluent monolayers overnight in FFRPMI/HIFCS. Thirty minutes prior to the addition of folate-conjugate, spent medium was aspirated from all wells and replaced with either fresh FFRPMI or FFRPMI supplemented with 100 μM FA. Each well then received 1 mL of medium containing increasing concentrations of folate-conjugate (3 wells per sample). Cells were pulsed for 2 h at 37° C., rinsed 4 times with 0.5 mL of medium and then chased in 1 mL of fresh medium up to 72 h. Spent medium was aspirated from all wells and replaced with fresh medium containing 5 μCi/mL of ^3H-thymidine. Following a 2 h incubation at 37° C., cells were washed 3 times with 0.5 mL of PBS and then treated with 0.5 mL of ice-cold 5% trichloroacetic acid per well. After 15 min, the trichloroacetic acid was aspirated and the cells solubilized by the addition of 0.5 mL of 0.25 N sodium hydroxide for 15 min at room temperature. Four hundred and fifty μL of each solubilized sample were transferred to scintillation vials containing 3 mL of Ecolume scintillation cocktail and counted in a liquid scintillation counter. Final results were expressed as the percentage of ^3H-thymidine incorporation relative to untreated controls.

`CCCC(=O)OCN(C(=O)[C@@H](NC(=O)[C@H]1CCCC[N+]1(C)CCSSC[C@H](NC(=O)[C@H](CC(=O)O)NC(=O)[C@H](CC(=O)O)NC(=O)[C@H](CCCNC(=N)N)NC(=O)[C@H](CC(=O)O)NC(=O)CC[C@H](NC(=O)c1ccc(NCc2cnc3nc(N)[nH]c(=O)c3n2)cc1)C(=O)O)C(=O)O)C(C)CC)[C@H](C[C@@H](OC(C)=O)c1nc(C(=O)N[C@@H](Cc2ccccc2)C[C@H](C)C(=O)OC)cs1)C(C)C` (some centres unmarked) [Compound 1] was tested, and the IC50 was 5 nM.

Compound `CC/C=C/CN(C(=O)[C@@H](NC(=O)[C@H]1CCCC[N+]1(C)Cc1ccc(SSC[C@H](NC(=O)[C@H](CC(=O)O)NC(=O)[C@H](CC(=O)O)NC(=O)[C@H](CCCNC(=N)N)NC(=O)[C@H](CC(=O)O)NC(=O)CC[C@H](NC(=O)c2ccc(NCc3cnc4nc(N)[nH]c(=O)c4n3)cc2)C(=O)O)C(=O)O)cc1)C(C)CC)[C@H](C[C@@H](OCC)c1nc(C(=O)N[C@@H](Cc2ccc(O)cc2)C[C@H](C)C(=O)O)cs1)C(C)C` (some centres unmarked) [Compound 2] has an IC50 of 7 nM.
